Experiments:
[1] = test system: blackgrass; experiment: Test B pre/postemergence blackgrass; type: in vivo, Alopecurus myosuroides
Method in brief: (§1)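 Response is a visual 0-to-10 score relative to untreated plants, where 0 means no effect and 10 means complete control, taken twelve to sixteen days after application. Treatments went onto soil at planting and onto foliage of 1- to 4-leaf plants, using a surfactant-containing non-phytotoxic solvent.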

[2] = test system: smallflower flatsedge; experiment: Test B flood test smallflower flatsedge; type: in vivo, Cyperus difformis; settings: for Plant response rating, S. Flatsedge (0 to 10 scale, 0 is no effect, 10 is complete control): Rate 62 g/ha, Pre-emergence; for Plant response rating, S. Flatsedge (0 to 10 scale, 0 is no effect, 10 is complete control) / S. Flatsedge plant response rating (0 to 10 scale, 0 is no effect, 10 is complete control): flood test species, visual evaluation after twelve to sixteen days; for S. Flatsedge plant response rating (0 to 10 scale, 0 is no effect, 10 is complete control): Rate 125 g/ha, under heading Pre-emergence
Method in brief: (§2)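 Each value is a visual injury score relative to controls, with 10 meaning complete control and 0 no effect. Evaluation took place twelve to sixteen days after the 2-leaf-stage plants were treated and kept in the greenhouse.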

[3] = test system: bamyardgrass; experiment: Test B flood test barnyardgrass; type: in vivo, Echinochloa crus-galli; settings: for Plant response rating, Barnyardgrass (0 to 10 scale, 0 is no effect, 10 is complete control): Rate 62 g/ha, Pre-emergence; for Plant response rating, Barnyardgrass (0 to 10 scale, 0 is no effect, 10 is complete control) / Barnyardgrass plant response rating (0 to 10 scale, 0 is no effect, 10 is complete control): flood test species, visual evaluation after twelve to sixteen days; for Barnyardgrass plant response rating (0 to 10 scale, 0 is no effect, 10 is complete control): Rate 125 g/ha, under heading Pre-emergence
Method in brief: as §2

[4] = test system: rice; experiment: Test B flood test rice; type: in vivo, Oryza sativa; settings: for Plant response rating, Rice (0 to 10 scale, 0 is no effect, 10 is complete control): Rate 62 g/ha, Pre-emergence; for Plant response rating, Rice (0 to 10 scale, 0 is no effect, 10 is complete control) / Rice plant response rating (0 to 10 scale, 0 is no effect, 10 is complete control): flood test species, visual evaluation after twelve to sixteen days; for Rice plant response rating (0 to 10 scale, 0 is no effect, 10 is complete control): Rate 125 g/ha, under heading Pre-emergence
Method in brief: as §2

[5] = test system: wild oat; experiment: Test B pre/postemergence wild oat; type: in vivo, Avena fatua
Method in brief: as §1

[6] = Postemergence, Rate 62 g/ha, scale 0 to 10, 0 is no effect, 10 is complete control
[7] = Postemergence, Rate 125 g/ha, scale of 0 to 10 where 0 is no effect and 10 is complete control
[8] = Postemergence, Rate 250 g/ha, scale of 0 to 10, 0 is no effect, 10 is complete control
[9] = Postemergence, Rate 500 g/ha, scale of 0 to 10 where 0 is no effect and 10 is complete control
[10] = Preemergence, Rate 62 g/ha, scale 0 to 10 (0 no effect, 10 complete control)
[11] = Preemergence, Rate 125 g/ha, scale of 0 to 10 where 0 is no effect and 10 is complete control
[12] = Preemergence, Rate 500 g/ha, scale of 0 to 10 where 0 is no effect and 10 is complete control
[13] = Rate 250 g/ha, Pre-emergence (flood test species), scale 0 to 10, 0 is no effect, 10 is complete control
[14] = Rate 500 g/ha, Pre-emergence section of Table B, 0 to 10 scale (0 no effect, 10 complete control)
[15] = Preemergence, Rate 250 g/ha, scale 0 to 10 (0 no effect, 10 complete control)

Structure (SMILES)	Plant response rating, Blackgrass [1, 6]	Plant response rating, Blackgrass [1, 7]	Blackgrass plant response rating [1, 8]	Plant response rating, Blackgrass [1, 9]	Blackgrass plant response rating [1, 10]	Blackgrass plant response rating [1, 11]	Plant response rating, S. Flatsedge (0 to 10 scale, 0 is no effect, 10 is complete control) [2]	S. Flatsedge plant response rating (0 to 10 scale, 0 is no effect, 10 is complete control) [2]	S. Flatsedge plant response rating [2, 13]	S. Flatsedge plant response rating [2, 14]	Plant response rating, Barnyardgrass (0 to 10 scale, 0 is no effect, 10 is complete control) [3]	Barnyardgrass plant response rating (0 to 10 scale, 0 is no effect, 10 is complete control) [3]	Barnyardgrass plant response rating [3, 13]	Barnyardgrass plant response rating [3, 14]	Plant response rating, Rice (0 to 10 scale, 0 is no effect, 10 is complete control) [4]	Rice plant response rating (0 to 10 scale, 0 is no effect, 10 is complete control) [4]	Rice plant response rating [4, 13]	Rice plant response rating [4, 14]	Plant response rating, Wild oats [5, 6]	Plant response rating, Wild oats [5, 7]	further results
C=C(Cn1c(=O)on(C(=O)N(c2ccccc2)C(C)C)c1=O)c1cccc(Cl)n1 [Compound 605]	0	0	0	0	0	0	0	0	0	0	0	0	0	0	0	0	0	0	2	1	Blackgrass plant response rating (0 to 10 scale) ([1]; Preemergence, Rate 250 g/ha): 0; Blackgrass plant response rating [1, 12]: 0; Wild oats plant response rating [5, 8]: 1; Plant response rating, Wild oats [5, 9]: 2; Wild oats plant response rating [5, 10]: 0; Wild oats plant response rating [5, 11]: 0; Plant response rating, Wild oats [5, 12]: 0
CCC(C)n1c(=O)on(C(=O)N(c2ccccc2)C(C)C)c1=O (centres unmarked) [Compound 610]	8	9	9	10	8	9	0	0	0	8	0	0	0	8	0	0	2	8	0	3	Blackgrass plant response rating (0 to 10 scale) ([1]; Preemergence, Rate 250 g/ha): 10; Blackgrass plant response rating [1, 12]: 10; Wild oats plant response rating [5, 8]: 5; Plant response rating, Wild oats [5, 9]: 9; Wild oats plant response rating [5, 10]: 5; Wild oats plant response rating [5, 11]: 6; Plant response rating, Wild oats [5, 12]: 10
CCC(C)n1c(=O)on(C(=O)N(c2ccccc2)C(C)C)c1=O (centres unmarked) [Compound 611]	7	9	9	9	9	9	0	0	0	0	0	0	0	5	0	0	0	2	0	2	Blackgrass plant response rating (0 to 10 scale) ([1]; Preemergence, Rate 250 g/ha): 10; Blackgrass plant response rating [1, 12]: 10; Wild oats plant response rating [5, 8]: 4; Plant response rating, Wild oats [5, 9]: 7; Wild oats plant response rating [5, 10]: 5; Wild oats plant response rating [5, 11]: 7; Plant response rating, Wild oats [5, 12]: 8
CC(C)N(C(=O)n1oc(=O)n(CSC#N)c1=O)c1ccc(F)cc1 [Compound 618]	0	0	0	0	0	0	0	0	0	0	0	0	0	0	0	0	0	0	0	0	Plant response rating, Blackgrass [1, 15]: 0; Blackgrass plant response rating [1, 12]: 0; Wild oats plant response rating [5, 8]: 0; Wild oats plant response rating [5, 10]: 0; Wild oats plant response rating [5, 11]: 0; Plant response rating, Wild oats [5, 15]: 0; Plant response rating, Wild oats [5, 12]: 0
CC(C)N(C(=O)n1oc(=O)n(CNC(=O)c2ccccc2)c1=O)c1ccccc1 [Compound 620]	0	0	0	0	0	0	0	0	0	0	0	0	0	0	0	0	0	0	0	0	Plant response rating, Blackgrass [1, 15]: 0; Blackgrass plant response rating [1, 12]: 0; Wild oats plant response rating [5, 8]: 0; Wild oats plant response rating [5, 10]: 0; Wild oats plant response rating [5, 11]: 0; Plant response rating, Wild oats [5, 15]: 0; Plant response rating, Wild oats [5, 12]: 0
COCCn1c(=O)on(C(=O)N(c2ccc(F)cc2)C(C)C)c1=O [Compound 627]	8	8	9	9	8	8	0	0	0	3	0	0	0	8	0	0	0	0	0	2	Plant response rating, Blackgrass [1, 15]: 9; Plant response rating, Blackgrass [1, 12]: 10; Wild oats plant response rating [5, 8]: 6; Wild oats plant response rating [5, 10]: 0; Wild oats plant response rating [5, 11]: 3; Plant response rating, Wild oats [5, 15]: 5; Plant response rating, Wild oats [5, 12]: 5
COCCn1c(=O)on(C(=O)N(c2ccc(F)cc2F)C(C)C)c1=O [Compound 628]	6	8	9	9	6	9	0	0	0	0	0	0	0	0	0	0	0	0	0	3	Plant response rating, Blackgrass [1, 15]: 10; Plant response rating, Blackgrass [1, 12]: 10; Wild oats plant response rating [5, 8]: 5; Wild oats plant response rating [5, 11]: 2; Plant response rating, Wild oats [5, 15]: 8; Plant response rating, Wild oats [5, 12]: 10
